Holding throughout (assay type): cell-based
In one assay the target is T1, KRAS4B WT (Homo sapiens, UniProt P01116).
T1 construct: HiBit; expressed in transfected cells; host or cells: GP5d cells (ECACC 95090715), stably transduced with lentivirus, CMV promoter
Put plainly: HiBit KRAS4B mutant spectrum degradation assay, KRAS4B WT in GP5d cells (18 h). Particulars: KRAS mutation G12WT. An excerpt:
(§1) The therapeutically relevant mutant KRAS constructs (WT, G12C, G12D, G12V, G13D) were obtained by site directed mutagenesis using a KRAS4B WT cDNA construct as a template. GP5d cells (ECACC Cat. No. 95090715) were transduced with lentiviral vectors expressing mutant KRAS4B cDNA under control of a CMV promoter. Stably transduced cells were selected using a neomycin selectable marker encoded on the construct.
(§2) To assess PROTAC-mediated degradation of various KRAS mutants, GP5d cells stably transduced with KRAS4B constructs as described above were seeded at 25000 cells per well in 100 μL Dulbecco's Modified Eagle medium (Sigma cat. no. D6429) supplemented with 10% fetal calf serum into white bottom opaque 96 well plates (Perkin Elmer cat no. 5680). Plates were incubated at 37° C., 5% CO2 in a humidified incubator over night to allow the cells to adhere. […] Plates were further incubated at 37° C. for 18 hours. Following incubation, 100 μL per well Promega Nano-Glo HiBit lytic detection reagent mix (Promega Nano-Glo HiBit Lytic Detection System #N3050), prepared according to the manufacturer's instructions in the kit, were added. To allow for adequate cell lysis, plates were incubated on an orbital shaker for 15 min and further incubated 30 min at room temperature. Upon completion of cell lysis, luminescence was measured using an Envision plate reader using the Ultrasensitive Luminescence Protocol for 96 well plates. Luminescence levels were normalized by the values obtained with DMSO-treated samples and plotted as percent of DMSO control. DC50 values were computed using a four parametric logistic model and are reported in nM in Table 65 for representative example (Ex.) compounds of the invention. Dmax values represent the maximal extent of degradation observed and is stated as percent of control (% Ctrl.) treatments in Table 66 for representative example (Ex.) compounds of the invention.
On the technique in general: With HiBiT, luminescence reflects the tagged protein that the partner subunit can reach.

The target in the next assay is T2, KRAS4B G13D (Homo sapiens, UniProt P01116, G13D).
T2 construct: HiBit; expressed in transfected cells; host or cells: GP5d cells (ECACC 95090715), stably transduced with lentivirus, CMV promoter
Put plainly: HiBit KRAS4B mutant spectrum degradation assay, KRAS4B G13D in GP5d cells (18 h). Particulars: KRAS mutation G13D.
Source text: as §1, §2

The subject of another assay is NCI-H358 cells. Put plainly: NCI-H358 CTG proliferation assay (120 h) (NSCLC, G12C). Particulars: Homo sapiens. The gist of the method: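 IC50 values derive from four-parameter nonlinear regression of CellTiter-Glo viability (RLU relative to DMSO wells) after 120 h of exposure. Cells were plated in RPMI-1640 + 10% FCS at 2000 per well (assay 1) or 200 per well (assay 2). Untreated cells were measured at compound addition as T0.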

In another assay the test system is GP2D cells. Put plainly: GP2D proliferation assay (120 h) (colorectal cancer, G12D). The method, then:
GP2D Proliferation Assay (120 h) (Colorectal Cancer, G12D)
GP2D cells (ATCC No. CRL-5807) are dispensed into white 384-well plates, flat and white bottom (Perkin Elmer, 6007680) at a density of 500 cells per well in 40 μl DMEM (Sigma, D6429)+1× GlutaMAX (Gibco, 35050038)+10% FCS (fetal calf serum). […] Compounds (10 mM stock in DMSO) are added at logarithmic dose series using the HP Digital Dispenser D300 (Tecan), including DMSO controls and normalizing for added DMSO. For the TO time point measurement, untreated cells are analyzed at the time of compound addition. Plates are incubated for 120 h, and cell viability is measured using CellTiter-Glo luminescent cell viability reagent (Promega product code G7570). Viability (stated as percent of control) is defined as relative luminescence units RLU of each well divided by the RLU of cells in DMSO controls. IC50 values are determined from viability measurements by non-linear regression using a four parameter model.

Another assay deals with LOVO cells. Put plainly: LOVO CTG proliferation assay (120 h) (CRC, G13D). Particulars: Homo sapiens. The method, then: LOVO CTG Proliferation Assay (120 h) (CRC, G13D)
(§3) LOVO cells (ATCC CCL-229) are dispensed into 384-well plates, flat and clear bottom (Greiner, PNr. 781091) at a density of 1000 cells per well in 60 μL DMEM (Sigma D6429)+10% Fetal Calf Serum (HyClone, PNr.: SH30084.03) and incubated at 37° C. in a CO2 incubator overnight. The next day, compounds (10 mM stock in DMSO) are added with the ECHO acoustic liquid handler system (Beckman Coulter), including DMSO controls. Plates are incubated for 120 h, and cell viability is measured using CellTiter-Glo luminescent cell viability reagent (Promega product code G7570). Viability (stated as percent of control) is defined as relative luminescence units RLU of each well divided by the RLU of cells in DMSO controls. IC50 values are determined from viability measurements by non-linear regression using a four-parameter model.

Another assay concerns A375 cells. Put plainly: A375 CTG proliferation assay (120 h) (melanoma, wt, B-Raf mutant, negative control). Particulars: Homo sapiens, A-375, negative control cell line. The method, then: A375 CTG Proliferation Assay (120 h) (Melanoma, Wt, B-Raf Mutant, Negative Control)
as §3, with “A375” for “LOVO”, “CRL-1619)” for “CCL-229)”, “300” for “1000”, “at logarithmic dose series using” for “with”, “HP Digital Dispenser D300 (Tecan),” for “ECHO acoustic liquid handler system (Beckman Coulter),”

The mark [1] stands for this setting: assay 1, read-out: H358 (assay 1) IC50.
Where [2] appears, read: assay 2, read-out: H358 (assay 2) IC50.

Here are results for four compounds from patent US20250145608A1, “KRAS DEGRADING COMPOUNDS COMPRISING ANNULATED 2-AMINO-3-CYANO THIOPHENES” (Boehringer Ingelheim Int'l GmbH Corp., priority 2021, published 2025).

One may read the DC50 as the midpoint of the concentration-degradation curve. Usually IC50 stands for the concentration needed to halve the response being measured.

Like-named read-outs stand apart in the source and are kept apart here.

T1 sequence (P01116 1-188 isoform P01116-2): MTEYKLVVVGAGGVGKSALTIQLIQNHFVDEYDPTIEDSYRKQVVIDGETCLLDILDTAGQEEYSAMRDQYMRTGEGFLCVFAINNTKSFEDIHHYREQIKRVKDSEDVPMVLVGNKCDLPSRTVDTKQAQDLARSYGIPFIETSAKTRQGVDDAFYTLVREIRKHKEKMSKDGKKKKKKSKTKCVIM
T2 sequence (P01116 1-188 isoform P01116-2 G13D): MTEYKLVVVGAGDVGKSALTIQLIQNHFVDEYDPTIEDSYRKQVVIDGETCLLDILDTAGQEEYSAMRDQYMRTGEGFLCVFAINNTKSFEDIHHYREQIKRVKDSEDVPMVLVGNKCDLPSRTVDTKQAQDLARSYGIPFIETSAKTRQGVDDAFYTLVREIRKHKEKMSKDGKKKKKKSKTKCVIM

`Cc1ncsc1-c1ccc([C@H](CO)NC(=O)[C@@H]2C[C@@H](O)CN2C(=O)[C@H](C(C)C)n2cc(OCCCCN3CCCN(c4nccc(-c5noc([C@@]6(C)CCCc7sc(N)c(C#N)c76)n5)n4)[C@@H](C)C3)nn2)cc1` [I-29]: the 50% degradation concentration (DC50) on KRAS4B WT was determined as 0.8 nM; at KRAS4B G13D, 1.2 nM. Besides, the “Dmax at 18 h” value was found to be 97.2 % Ctrl at KRAS4B WT and 89.7 % Ctrl on KRAS4B G13D. The IC50 is 28.8 nM in the assay on NCI-H358 cells (setting [1]), 8.5 nM with GP2D cells, 44 nM in the assay on LOVO cells and ≥ 3000 nM in the assay with A375 cells.

`Cc1ncsc1-c1ccc(CNC(=O)[C@@H]2C[C@@H](O)CN2C(=O)[C@@H](c2cc(OCCCCN3CCCN(c4nccc(-c5noc([C@@]6(C)CCCc7sc(N)c(C#N)c76)n5)n4)[C@@H](C)C3)no2)C(C)C)cc1` (single isomer, unassigned) [I-27]: the results for the 50% degradation concentration (DC50) on KRAS4B WT and at KRAS4B G13D were 0.7 nM and 1.6 nM, respectively. For the same compound, the “Dmax at 18 h” value came out at 95.5 % Ctrl at KRAS4B WT and 93 % Ctrl on KRAS4B G13D. In addition, the concentration for half-maximal inhibition (IC50) is 60.5 nM with NCI-H358 cells (setting [1]); 35.2 nM in the assay with NCI-H358 cells (setting [2]); 5.1 nM in the assay on GP2D cells; 40.9 nM with LOVO cells; ≥ 3000 nM in the assay on A375 cells.

On to `Cc1ncsc1-c1ccc([C@@H](NC(=O)[C@@H]2C[C@@H](O)CN2C(=O)[C@H](C(C)C)n2cc(OCCCCN3CCCN(c4nccc(-c5noc([C@@]6(C)CCCc7sc(N)c(C#N)c76)n5)n4)[C@@H](C)C3)nn2)[C@H](C)O)cc1` (single isomer, unassigned) [I-41], for which the values for the half-maximal degradation concentration (DC50) at KRAS4B WT and on KRAS4B G13D were 0.5 nM and 0.8 nM, respectively. Also, the entries for the “Dmax at 18 h” value at KRAS4B WT and at KRAS4B G13D were 98.0 % Ctrl and 89.7 % Ctrl, respectively. For the same compound, the IC50 with NCI-H358 cells (setting [1]) was 59.6 nM; in the assay on NCI-H358 cells (setting [2]), 14.9 nM; in the assay on GP2D cells, 7.7 nM; in the assay with LOVO cells, 29.3 nM; in the assay on A375 cells, ≥ 3000 nM.

Consider `Cc1ncsc1-c1ccc([C@@H](NC(=O)[C@@H]2C[C@@H](O)CN2C(=O)[C@H](C(C)C)n2cc(OCCCN3CCCN(c4nccc(-c5noc([C@@]6(C)CCCc7sc(N)c(C#N)c76)n5)n4)[C@@H](C)C3)nn2)[C@H](O)C(C)C)cc1` (single isomer, unassigned) [I-43], for which the DC50 worked out at 0.5 nM on KRAS4B WT and 1.1 nM at KRAS4B G13D. In addition, the entries for the “Dmax at 18 h” value on KRAS4B WT and on KRAS4B G13D were 98.1 % Ctrl and 90.4 % Ctrl, respectively. The IC50 is 50.8 nM with NCI-H358 cells (setting [1]); 8.1 nM with NCI-H358 cells (setting [2]); 6.6 nM in the assay on GP2D cells; 22.2 nM in the assay with LOVO cells; ≥ 3000 nM with A375 cells.
